Results as given in patent US20050043273A1, “Compositions and methods for inhibiting slit protein and glypican interactions” (priority 2003, published 2005).

How the values were obtained:
[1] = test system: vascular endothelial cells; conditions: cited from earlier work
whole blood = conditions: cited from earlier work
[2] = test system: glypican-1-Fc binding to human full-length Slit-2; assay: ELISA: inhibition of glypican-1-Fc binding to Slit-2
Method: Human embryonic kidney 293 cells were transfected with a glypican-1-Fc fusion protein construct using Lipofectamine 2000 and grown in serum-free DMEM containing 1% ITS+. To separate the glycanated form of the proteoglycan (which was used for all studies) from unglycanated core protein, the conditioned medium was applied to a 0.9×8 cm column of DEAE-Sephacel equilibrated with 150 mM NaCl, 50 mM Tris-HCl, pH 8.0. After elution with 50 mM Tris-HCl (pH 8.0) containing 0.6 M NaCl, the glycanated glypican-1-Fc was bound to protein A-Sepharose beads, eluted with 0.1 M glycine, pH 3.0, and immediately neutralized with 1 M Tris, pH 8.0, for storage at −80° C.
293 cells were transfected with the pSecTagB vector (Invitrogen, Carlsbad, Calif.) containing cDNA for the His-tagged uncleavable variant of human full-length Slit-2, in which the nine amino acids encompassing the proteolytic processing site were deleted, producing an uncleavable full-length protein. 1 M NaCl extracts of the 293 cells were incubated with nickel-agarose beads (Qiagen) for 2 hours at 4° C., and after washing, bound protein was eluted with 10 mM Hepes (pH 7.5) containing 250 mM imidazole and 1 M NaCl. Protein concentrations were determined by the Bradford assay. Purity of the recombinant Slit protein was confirmed by SDS-PAGE followed by silver staining.
96-well plates (Corning Costar #9018) were coated overnight with the human full-length Slit-2 in imadazole/NaCl elution buffer at a saturating concentration of 1-5 μg/well, after dilution in PBS. Unbound protein was removed by washing with TBST (10 mM Tris-HCl, pH 7.4, 150 mM NaCl, 0.1% Tween 20), the wells were blocked with 10% FBS in TBST for 2 hours, and then incubated for 18 hours at room temperature with glypican-1-Fc (1 μg/well) in 5 mM PBS (pH 7.2), or in PBS containing varying concentrations of potential inhibitory compositions. Bound glypican was detected using a biotinylated anti-human Fc antibody (Jackson Immunoresearch; 1:250,000 in TBST, for 2 hours), followed by incubation for 20 minutes with HRP-conjugated streptavidin (1:20,000 in TBST). The colorimetric reaction product from the o-phenylenediamine substrate was measured at 450 nm using a Dynatech MRX ELISA plate reader. Nonspecific binding was calculated as the binding of glypican-1-Fc to wells coated with BSA (2 mg/ml solution). Percent inhibition was calculated in relation to parallel assay wells in which no inhibitor was added to the glypican-1 solution. From serial dilutions of a known concentration of glypican-1-Fc directly coated on the wells and the corresponding immunoreactivity absorbance, a standard curve could also be created and used to quantitate the absolute amount of glypican-1-Fc bound.
The glypican-1-Fc and human Slit-2 fusion proteins are prepared as set forth in Example One.

SMILES | antithrombotic activity [1] | anticoagulant activity (whole blood) | % inhibition of glypican-1 binding to Slit ([2]; 1 μM) | % inhibition of glypican-1 binding to Slit ([2]; 5 μM) | % inhibition of glypican-1 binding to Slit ([2]; 50 μM) | inhibition of glypican binding to Slit proteins (in words) ([2]; ELISA, function of oligosaccharide size, FIG. 1)
O=S(=O)(O)c1cc2c(O)c(c1)Cc1cc(S(=O)(=O)O)cc(c1O)Cc1cc(S(=O)(=O)O)cc(c1O)Cc1cc(S(=O)(=O)O)cc(c1O)Cc1cc(S(=O)(=O)O)cc(c1O)Cc1cc(S(=O)(=O)O)cc(c1O)Cc1cc(S(=O)(=O)O)cc(c1O)Cc1cc(S(=O)(=O)O)cc(c1O)C2 [GL-522-Y-1] | heparin-like antithrombotic activity | no significant anticoagulant activity | 58% | 61% | 67% | –
CO[C@H]1O[C@H](COS(=O)(=O)O)[C@@H](O[C@@H]2O[C@@H](C(=O)O)[C@@H](O[C@H]3O[C@H](COS(=O)(=O)O)[C@@H](O[C@@H]4O[C@H](C(=O)O)[C@@H](O[C@H]5O[C@H](COS(=O)(=O)O)[C@@H](O)[C@H](O)[C@H]5NS(=O)(=O)O)[C@H](O)[C@H]4O)[C@H](OS(=O)(=O)O)[C@H]3NS(=O)(=O)O)[C@H](O)[C@H]2OS(=O)(=O)O)[C@H](O)[C@H]1NS(=O)(=O)O [Arixtra] | – | – | – | – | no effect | –
Cc1ccc(C(=O)Nc2ccc(S(=O)(=O)O)c3cc(S(=O)(=O)O)cc(S(=O)(=O)O)c23)cc1NC(=O)c1cccc(NC(=O)Nc2cccc(C(=O)Nc3cc(C(=O)Nc4ccc(S(=O)(=O)O)c5cc(S(=O)(=O)O)cc(S(=O)(=O)O)c45)ccc3C)c2)c1 [suramin] | – | – | – | – | – | inhibits glypican-Slit interactions to the same extent as large heparin oligosaccharides
